From patent US11337423B1, “Candida auris disinfectant” (priority 2021, dated 2022)

Tests used:
Experiment in all cases: zone of inhibition in vitro test
Assay type in all cases: cell-based
[1] = tested on: Candida auris CDC B11903
[2] = tested on: Methicillin Resistant Staphylococcus aureus ATCC 33591
[3] = tested on: Lactobacillus casei ATCC 393
[4] = tested on: Staphyloccus epidermidis ATCC 12228
[5] = tested on: Escherichia coli ATCC 8739
[6] = tested on: Candida albicans ATCC 10231
[7] = tested on: MRSE ATCC 51625
[8] = tested on: Escerichia coli ATCC 43895
[9] = tested on: Staphylococcus aureus ATCC 6538
[10] = tested on: Propionibacterium acnes ATCC 6919
[11] = tested on: Escherichia coli 0157:H7
[12] = tested on: Clostridium perfrinqens ATCC 13124
[13] = tested on: Klebsiella pneumoniae ATCC 4352
[14] = tested on: Pseudomonas aeruqinosa ATCC 9-27
[15] = tested on: Salmonella enterica ATCC 14028
[16] = Candida auris CDC 811903, Table 2

O=C(O)c1ccc(O)c(O)c1 [Protocatechuic acid, reference compound]
resistance of Candida auris to the chemical ([1]; conclusion in words): very resistant | Average (mm) [2]: 21 mm | RESULTS (mm) Plate 1 [2]: 21 mm | RESULTS (mm) Plate 2 [2]: 21 mm | Average (mm) [3]: 21 mm | RESULTS (mm) Plate 1 [3]: 18 mm | RESULTS (mm) Plate 2 [3]: 24 mm | Average (mm) [4]: 27 mm | RESULTS (mm) Plate 1 [4]: 26 mm | RESULTS (mm) Plate 2 [4]: 28 mm | Average (mm) [5]: 14 mm | RESULTS (mm) Plate 1 [5]: 14 mm | RESULTS (mm) Plate 2 [5]: 14 mm | Average (mm) [6]: 18 mm | RESULTS (mm) Plate 1 [6]: 21 mm | RESULTS (mm) Plate 2 [6]: 15 mm | Average (mm) [7]: 18 mm | RESULTS (mm) Plate 1 [7]: 15 mm | RESULTS (mm) Plate 2 [7]: 20 mm | Average (mm) [8]: 13 mm | RESULTS (mm) Plate 1 [8]: 14 mm | RESULTS (mm) Plate 2 [8]: 12 mm | Average (mm) [9]: 18 mm | RESULTS (mm) Plate 1 [9]: 18 mm | RESULTS (mm) Plate 2 [9]: 18 mm | Average (mm) [10]: 21 mm | RESULTS (mm) Plate 1 [10]: 23 mm | RESULTS (mm) Plate 2 [10]: 19 mm | Average (mm) [11]: 15.5 mm | RESULTS (mm) Plate 1 [11]: 17 mm | RESULTS (mm) Plate 2 [11]: 14 mm | Average (mm) [12]: 52 mm | RESULTS (mm) Plate 1 [12]: 54 mm | RESULTS (mm) Plate 2 [12]: 50 mm | Average (mm) [13]: 14.5 mm | RESULTS (mm) Plate 1 [13]: 16 mm | RESULTS (mm) Plate 2 [13]: 13 mm | Average (mm) [14]: 13 mm | RESULTS (mm) Plate 1 [14]: 13 mm | RESULTS (mm) Plate 2 [14]: 13 mm | Average (mm) [15]: 14 mm | RESULTS (mm) Plate 1 [15]: 15 mm | RESULTS (mm) Plate 2 [15]: 13 mm

CCOC(=O)c1ccc(O)c(O)c1 [Ethyl ester of protocatechuic acid, 3,4-Dihydroxybenzoic acid ethyl ester]
Average (mm) [1, 16]: 29.5 mm | RESULTS (mm) Plate 2 [1, 16]: 28 mm | RESULTS (mm) Plate I [1, 16]: 31 mm | topical disinfection for Candida auris ([1]; conclusion in words from the in vitro test results): excellent agent for topical disinfection | Average (mm) [2]: 26.5 mm | RESULTS (mm) Plate 1 [2]: 28 mm | RESULTS (mm) Plate 2 [2]: 25 mm | Average (mm) [3]: 23 mm | RESULTS (mm) Plate 1 [3]: 24 mm | RESULTS (mm) Plate 2 [3]: 22 mm | Average (mm) [4]: 35 mm | RESULTS (mm) Plate 1 [4]: 35 mm | RESULTS (mm) Plate 2 [4]: 35 mm | Average (mm) [5]: 23 mm | RESULTS (mm) Plate 1 [5]: 22 mm | RESULTS (mm) Plate 2 [5]: 24 mm | Average (mm) [6]: 29.5 mm | RESULTS (mm) Plate 1 [6]: 31 mm | RESULTS (mm) Plate 2 [6]: 28 mm | Average (mm) [7]: 23 mm | RESULTS (mm) Plate 1 [7]: 23 mm | RESULTS (mm) Plate 2 [7]: 22 mm | Average (mm) [8]: 27 mm | RESULTS (mm) Plate 1 [8]: 25 mm | RESULTS (mm) Plate 2 [8]: 28 mm | Average (mm) [9]: 27 mm | RESULTS (mm) Plate 1 [9]: 26 mm | RESULTS (mm) Plate 2 [9]: 28 mm | Average (mm) [10]: 20 mm | RESULTS (mm) Plate 1 [10]: 22 mm | RESULTS (mm) Plate 2 [10]: 18 mm | Average (mm) [11]: 27 mm | RESULTS (mm) Plate 1 [11]: 26 mm | RESULTS (mm) Plate 2 [11]: 28 mm | Average (mm) [12]: 52 mm | RESULTS (mm) Plate 1 [12]: 50 mm | RESULTS (mm) Plate 2 [12]: 54 mm | Average (mm) [13]: 27 mm | RESULTS (mm) Plate 1 [13]: 28 mm | RESULTS (mm) Plate 2 [13]: 26 mm | Average (mm) [14]: 11 mm | RESULTS (mm) Plate 1 [14]: 11 mm | RESULTS (mm) Plate 2 [14]: 11 mm | Average (mm) [15]: 28 mm | RESULTS (mm) Plate 1 [15]: 28 mm | RESULTS (mm) Plate 2 [15]: 28 mm
